Results reported in ChEMBL document CHEMBL1201862, “PubChem BioAssay data set” (2004).
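Where inhibition never reached the appropriate level, the endpoint shown equals the highest concentration tested. Otherwise, values were interpolated linearly from a five-concentration, 48-hour dose response in 96-well plates. At the GI50, growth is halved.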 Active and inactive are the calls of the source. No stated cut-off is given here; in the data, active = GI50 up to about 1.1 µM and inactive = higher.

What was measured:
Experiment in all cases: inhibition of tumour cell growth, NCI panel, 48 h
SN12C = test system: SN12C
UO-31 = test system: UO-31
RXF 631 = test system: RXF 631
NCI-H460 = test system: NCI-H460
CAKI-1 = test system: CAKI-1
HOP-62 = test system: HOP-62
SNB-19 = test system: SNB-19
LXFL 529 = test system: LXFL 529
UACC-62 = test system: UACC-62
A498 = test system: A498
HOP-18 = test system: HOP-18
SW-620 = test system: SW-620
RPMI-8226 = test system: RPMI-8226
Malme-3M = test system: Malme-3M
SF-268 = test system: SF-268
M19-MEL = test system: M19-MEL
HL-60 = test system: HL-60
HOP-92 = test system: HOP-92
SK-MEL-5 = test system: SK-MEL-5
NCI-H23 = test system: NCI-H23
HCT-15 = test system: HCT-15
DMS-273 = test system: DMS-273
OVCAR-8 = test system: OVCAR-8
DLD-1 = test system: DLD-1
786-0 = test system: 786-0
ACHN = test system: ACHN
SNB-75 = test system: SNB-75
SK-OV-3 = test system: SK-OV-3
MOLT-4 = test system: MOLT-4
RXF 393 = test system: RXF 393
LOX IMVI = test system: LOX IMVI
OVCAR-5 = test system: OVCAR-5
OVCAR-3 = test system: OVCAR-3
DMS-114 = test system: DMS-114
SF-539 = test system: SF-539
CCRF-CEM = test system: CCRF-CEM
HT-29 = test system: HT-29
A549 = test system: A549
M14 = test system: M14
IGROV-1 = test system: IGROV-1
SK-MEL-2 = test system: SK-MEL-2
COLO 205 = test system: COLO 205
EKVX = test system: EKVX
TK-10 = test system: TK-10
OVCAR-4 = test system: OVCAR-4
K562 = test system: K562
HCC 2998 = test system: HCC 2998
SF-295 = test system: SF-295
SNB-78 = test system: SNB-78
HCT-116 = test system: HCT-116
KM-20L2 = test system: KM-20L2
U-251 = test system: U-251
UACC-257 = test system: UACC-257
KM12 = test system: KM12
SK-MEL-28 = test system: SK-MEL-28
NCI-H226 = test system: NCI-H226

`Cc1ccc(S(=O)(=O)N/N=C/C(C)C)cc1` was tested, and the GI50 (SN12C) was > 100 µM (inactive), the GI50 (UO-31) was > 100 µM (inactive) and the GI50 (RXF 631) was > 100 µM (inactive). The GI50 (NCI-H460) was > 100 µM (inactive), the GI50 (CAKI-1) was > 100 µM (inactive) and the GI50 (HOP-62) was > 100 µM (inactive). For the same compound, the GI50 (SNB-19) was > 100 µM (inactive), the GI50 (LXFL 529) was > 100 µM (inactive) and the GI50 (UACC-62) was > 100 µM (inactive). For the same compound, the GI50 (A498) was > 100 µM (inactive), the GI50 (HOP-18) was > 100 µM (inactive) and the GI50 (SW-620) was > 100 µM (inactive). The GI50 (RPMI-8226) was > 100 µM (inactive), the GI50 (Malme-3M) was > 100 µM (inactive) and the GI50 (SF-268) was > 100 µM (inactive). For the same compound, the GI50 (M19-MEL) was > 100 µM (inactive), the GI50 (HL-60) was > 100 µM (inactive) and the GI50 (HOP-92) was 24.9 µM (inactive). The GI50 (SK-MEL-5) was > 100 µM (inactive), the GI50 (NCI-H23) was > 100 µM (inactive) and the GI50 (HCT-15) was > 100 µM. For the same compound, the GI50 (DMS-273) was > 100 µM (inactive), the GI50 (OVCAR-8) was > 100 µM (inactive) and the GI50 (DLD-1) was > 100 µM (inactive). For the same compound, the GI50 (786-0) was > 100 µM (inactive), the GI50 (ACHN) was > 100 µM (inactive) and the GI50 (SNB-75) was 70.6 µM (inactive). The GI50 (SK-OV-3) was > 100 µM (inactive), the GI50 (MOLT-4) was > 100 µM (inactive) and the GI50 (RXF 393) was > 100 µM (inactive). The GI50 (LOX IMVI) was > 100 µM (inactive), the GI50 (OVCAR-5) was > 100 µM (inactive) and the GI50 (OVCAR-3) was > 100 µM (inactive). For the same compound, the GI50 (DMS-114) was > 100 µM (inactive), the GI50 (SF-539) was > 100 µM (inactive) and the GI50 (CCRF-CEM) was > 100 µM (inactive). The GI50 (HT-29) was > 100 µM (inactive), the GI50 (A549) was > 100 µM (inactive) and the GI50 (M14) was > 100 µM (inactive). For the same compound, the GI50 (IGROV-1) was > 100 µM (inactive), the GI50 (SK-MEL-2) was > 100 µM (inactive) and the GI50 (COLO 205) was > 100 µM (inactive). The GI50 (EKVX) was > 100 µM (inactive), the GI50 (TK-10) was > 100 µM (inactive) and the GI50 (OVCAR-4) was > 100 µM (inactive). For the same compound, the GI50 (K562) was > 100 µM (inactive), the GI50 (HCC 2998) was > 100 µM (inactive) and the GI50 (SF-295) was > 100 µM (inactive). For the same compound, the GI50 (SNB-78) was > 100 µM (inactive), the GI50 (HCT-116) was > 100 µM (inactive) and the GI50 (KM-20L2) was > 100 µM (inactive). The GI50 (U-251) was > 100 µM (inactive), the GI50 (UACC-257) was > 100 µM (inactive) and the GI50 (KM12) was > 100 µM (inactive).

For `Cc1cccc(-c2nc3c(C(=O)NCCN(C)C)cccc3[nH]2)c1`, the GI50 (SN12C) was 0.65 µM (active), the GI50 (UO-31) was 2.06 µM (inactive) and the GI50 (RXF 631) was 0.394 µM (active). For the same compound, the GI50 (NCI-H460) was 0.369 µM (active), the GI50 (CAKI-1) was 2.23 µM (inactive) and the GI50 (HOP-62) was 1.72 µM (inactive). The GI50 (SNB-19) was 1.98 µM (inactive), the GI50 (UACC-62) was 1.8 µM (inactive) and the GI50 (A498) was 1.54 µM (inactive). For the same compound, the GI50 (HOP-18) was 0.605 µM (active), the GI50 (SW-620) was 0.352 µM (active) and the GI50 (RPMI-8226) was 3.12 µM (inactive). For the same compound, the GI50 (SF-268) was 1.58 µM (inactive), the GI50 (M19-MEL) was 1.67 µM (inactive) and the GI50 (HL-60) was 2.29 µM (inactive). For the same compound, the GI50 (HOP-92) was 1.28 µM (inactive), the GI50 (SK-MEL-5) was 1.65 µM (inactive) and the GI50 (NCI-H23) was 1.06 µM (active). The GI50 (HCT-15) was 0.414 µM, the GI50 (DMS-273) was 0.411 µM (active) and the GI50 (OVCAR-8) was 0.708 µM (active). The GI50 (DLD-1) was 0.407 µM (active), the GI50 (786-0) was 1.59 µM (inactive) and the GI50 (ACHN) was 2.26 µM (inactive). The GI50 (SNB-75) was 2.2 µM (inactive), the GI50 (SK-OV-3) was 1.49 µM (inactive) and the GI50 (MOLT-4) was 0.406 µM (active). The GI50 (RXF 393) was 1.19 µM (inactive), the GI50 (LOX IMVI) was 0.708 µM (active) and the GI50 (OVCAR-5) was 1.88 µM (inactive). For the same compound, the GI50 (OVCAR-3) was 1.89 µM (inactive), the GI50 (SK-MEL-28) was 2.04 µM (inactive) and the GI50 (DMS-114) was 1.24 µM (inactive). For the same compound, the GI50 (SF-539) was 0.724 µM (active), the GI50 (CCRF-CEM) was 1.02 µM (active) and the GI50 (HT-29) was 0.52 µM (active). The GI50 (A549) was 1.1 µM (active), the GI50 (M14) was 1.63 µM (inactive) and the GI50 (IGROV-1) was 0.83 µM (active). The GI50 (SK-MEL-2) was 1.86 µM (inactive), the GI50 (COLO 205) was 0.363 µM (active) and the GI50 (EKVX) was 1.46 µM (inactive). For the same compound, the GI50 (TK-10) was 1.37 µM (inactive), the GI50 (OVCAR-4) was 0.809 µM (active) and the GI50 (K562) was 0.863 µM (active). The GI50 (HCC 2998) was 1 µM (active), the GI50 (SF-295) was 1.1 µM (active) and the GI50 (SNB-78) was 3.49 µM (inactive). The GI50 (NCI-H226) was 1.85 µM (inactive), the GI50 (HCT-116) was 0.329 µM (active) and the GI50 (U-251) was 1.49 µM (inactive). For the same compound, the GI50 (UACC-257) was 1.67 µM (inactive) and the GI50 (KM12) was 0.944 µM (active).
